The values below come from the supplement of paper PMC10307832.

Common to all, as to experiment: relative viability (nuclei count vs DMSO), 5 days (fraction); higher = more cells survive
Compound in assay [1]: C1COCCN1CC2=CC(=O)C(=CO2)OCCCCCSC3=C4C=CC(=CC4=NC=C3)C(F)(F)F [EHT 1864] + N=C(N)NC(=N)NCCc1ccccc1 [Phenformin] (partner 250 µM)
In a few lines: (§1)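 Lung cancer cell lines in 1536-well plates were dosed by pin tool the day after seeding, either with one drug alone or with a fixed anchor-drug dose plus five library-drug doses (not always all listed) in √10 steps. After 5 days, cells were fixed and their nuclei stained in one step (final 0.05% Triton X-100, 1% formaldehyde, 1 ug/ml Hoechst), then counted on 4× images. Relative viability is the nuclei count in treated wells divided by that in vehicle wells. Values are medians of duplicate plates.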

Compound in assay [2]: C1COCCN1CC2=CC(=O)C(=CO2)OCCCCCSC3=C4C=CC(=CC4=NC=C3)C(F)(F)F [EHT 1864] + CC1(C)CCC(c2ccc(Cl)cc2)=C(CN2CCN(c3ccc(C(=O)NS(=O)(=O)c4ccc(N[C@H](CCN5CCOCC5)CSc5ccccc5)c(S(=O)(=O)C(F)(F)F)c4)cc3)CC2)C1 [Navitoclax] (partner 0.5 µM)
In a few lines:
as §1

Compound in assay [3]: C1COCCN1CC2=CC(=O)C(=CO2)OCCCCCSC3=C4C=CC(=CC4=NC=C3)C(F)(F)F [EHT 1864] + Nc1nc2[nH]cc(CCc3ccc(C(=O)N[C@@H](CCC(=O)O)C(=O)O)cc3)c2c(=O)[nH]1 [Pemetrexed] (partner 0.2 µM)
In a few lines:
as §1

Compound in assay [4]: C1COCCN1CC2=CC(=O)C(=CO2)OCCCCCSC3=C4C=CC(=CC4=NC=C3)C(F)(F)F [EHT 1864] + CC(=O)Nc1cccc(-n2c(=O)n(C3CC3)c(=O)c3c(Nc4ccc(I)cc4F)n(C)c(=O)c(C)c32)c1 [Trametinib] (partner 0.02 µM)
In a few lines:
as §1

As to SW 1573, the relative viability in assay [1] (first compound 0.04 µM) is 0.436; in assay [1] (first compound 0.1265 µM), 0.34; in assay [1] (first compound 0.4 µM), 0.347; in assay [1] (first compound 1.265 µM), 0.334; in assay [1] (first compound 4 µM), 0.382; in assay [2] (first compound 0.04 µM) it was 0.999. The relative viability in assay [2] (first compound 0.1265 µM) stood at 0.978; in assay [2] (first compound 0.4 µM) it was 1.01; in assay [2] (first compound 1.265 µM), 0.958; in assay [2] (first compound 4 µM) it was 0.725; in assay [3] (first compound 0.04 µM), 0.737; in assay [3] (first compound 0.4 µM), 0.78. Moreover, the relative viability came to 0.869 in assay [3] (first compound 1.265 µM); 0.775 in assay [3] (first compound 4 µM); 0.622 in assay [4] (first compound 0.04 µM); 0.437 in assay [4] (first compound 0.4 µM); 0.398 in assay [4] (first compound 1.265 µM); 0.444 in assay [4] (first compound 4 µM).

With PC-14, the relative viability turned out to be 0.652 in assay [1] (first compound 0.04 µM); 0.615 in assay [1] (first compound 0.4 µM); 0.594 in assay [1] (first compound 1.265 µM); 0.513 in assay [1] (first compound 4 µM); 1.06 in assay [2] (first compound 0.04 µM); 0.957 in assay [2] (first compound 0.1265 µM). Also, the relative viability was 0.952 in assay [2] (first compound 0.4 µM); 1.02 in assay [2] (first compound 1.265 µM); 1.06 in assay [2] (first compound 4 µM); 0.121 in assay [3] (first compound 0.04 µM); 0.124 in assay [3] (first compound 0.1265 µM); 0.137 in assay [3] (first compound 0.4 µM). The relative viability worked out at 0.133 in assay [3] (first compound 1.265 µM); 0.133 in assay [3] (first compound 4 µM); 0.741 in assay [4] (first compound 0.04 µM); 0.672 in assay [4] (first compound 0.1265 µM); 0.796 in assay [4] (first compound 0.4 µM); 0.68 in assay [4] (first compound 1.265 µM). The relative viability in assay [4] (first compound 4 µM) is 0.88.

For LK-2, the relative viability was found to be 0.539 in assay [1] (first compound 0.04 µM); 0.591 in assay [1] (first compound 0.4 µM); 0.369 in assay [1] (first compound 1.265 µM); 0.373 in assay [1] (first compound 4 µM); 0.839 in assay [2] (first compound 0.04 µM); 0.674 in assay [2] (first compound 0.1265 µM). Moreover, the relative viability in assay [2] (first compound 0.4 µM) amounted to 0.847; in assay [2] (first compound 1.265 µM), 0.94; in assay [2] (first compound 4 µM), 0.784; in assay [3] (first compound 0.04 µM) it was 0.305; in assay [3] (first compound 0.4 µM), 0.259; in assay [3] (first compound 1.265 µM), 0.288. Moreover, the relative viability came to 0.25 in assay [3] (first compound 4 µM); 0.673 in assay [4] (first compound 0.04 µM); 0.48 in assay [4] (first compound 0.1265 µM); 0.719 in assay [4] (first compound 0.4 µM); 0.596 in assay [4] (first compound 1.265 µM); 1.02 in assay [4] (first compound 4 µM).

In the case of COR-L23, the relative viability was 0.53 in assay [1] (first compound 0.04 µM); 0.368 in assay [1] (first compound 0.1265 µM); 0.484 in assay [1] (first compound 0.4 µM); 0.5 in assay [1] (first compound 1.265 µM); 0.491 in assay [1] (first compound 4 µM); 1.01 in assay [2] (first compound 0.04 µM). For the same cell line, the relative viability in assay [2] (first compound 0.1265 µM) is 0.901; in assay [2] (first compound 0.4 µM), 1.01; in assay [2] (first compound 1.265 µM), 0.979; in assay [2] (first compound 4 µM), 0.932; in assay [3] (first compound 0.04 µM), 0.197; in assay [3] (first compound 0.1265 µM), 0.193. The relative viability turned out to be 0.196 in assay [3] (first compound 0.4 µM); 0.194 in assay [3] (first compound 1.265 µM); 0.214 in assay [3] (first compound 4 µM); 0.524 in assay [4] (first compound 0.04 µM); 0.453 in assay [4] (first compound 0.1265 µM); 0.598 in assay [4] (first compound 0.4 µM). Further, the results for the relative viability in assay [4] (first compound 1.265 µM) and in assay [4] (first compound 4 µM) were 0.631 and 0.553, respectively.
